Experiments:
P38 MAP kinase [1] = target: T1, P38 MAP kinase (Homo sapiens, UniProt Q16539); experiment: HPLC based Chemical Array Assay: protein-bound compounds separated from free compounds, UV and mass spectrum of protein fraction; assay type: binding; conditions: for identity by mass spectrum of the compound extracted from the mixture and released from the protein: 5 uM P38 MAP kinase + 5 uM mixture of Quinine and 86002, Diol column
T1 construct: purchased Sigma
Method: (§1) Drug-like chemical compounds representing a collection of drug-like chemical scaffolds (Sigma-Aldrich, ICN, Calbiochem) were weighed and mixed to a final concentration of 20 uM each in 50 mM ammonium acetate pH 7, 10% methanol. 1 uM to 20 uM tubulin or P38 MAP kinase (Sigma) were dispensed into HPLC low volume sample cuvettes (Waters) and mixed with 0.5 uM to 20 uM compounds.
(§2) The compounds were eluted using an acetonitrile gradient past a UV detector and into a TOF mass spectrometer (Micromass LCT). […] In other mass spectrometry instruments, fragmentation can be achieved in a collision cell. The fragmentation pattern which is characteristic for each compound consists of the larger parent peak and other peaks representing fragments of the chemical compound or their isotopes. […] Alternatively, one or more characteristic isotope(s) of the parent peak representing the molecular weight of the compound was compared with the standard to identify the compound that bound the protein target. In another alternative analysis, the parent peak representing the molecular weight of the compound was itself compared with the standard to identify the compound. Sometimes, the combination of these methods was also used to identify the compound.

tubulin = experiment: as above; assay type: binding; conditions: 10 compound mixture 0.5 uM each, tubulin 0, 5 and 20 uM, GFF II column
Method: as §1, §2

P38 MAP kinase [2] = target: T1, P38 MAP kinase; conditions: stated as a known property of the ligand; cited from earlier work

T1 sequence (Q16539 whole entry): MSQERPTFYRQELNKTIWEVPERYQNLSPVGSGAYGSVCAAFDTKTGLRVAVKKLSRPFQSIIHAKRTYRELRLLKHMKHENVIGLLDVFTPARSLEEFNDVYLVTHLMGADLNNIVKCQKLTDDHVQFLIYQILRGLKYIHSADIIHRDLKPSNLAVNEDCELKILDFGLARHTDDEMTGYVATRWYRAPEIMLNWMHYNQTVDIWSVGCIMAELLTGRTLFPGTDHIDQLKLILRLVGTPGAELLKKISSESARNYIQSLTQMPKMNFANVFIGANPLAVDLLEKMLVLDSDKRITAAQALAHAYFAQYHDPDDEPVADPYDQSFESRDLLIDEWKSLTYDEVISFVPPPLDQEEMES

Row | Structure (SMILES) | identity by mass spectrum of the compound extracted from the mixture and released from the protein (P38 MAP kinase [1]) | mass spectrum of the collected protein fraction compared with the standard (P38 MAP kinase [1]; 5 uM P38 MAP kinase + 5 uM compound alone, Diol column) | reduction of the compound's UV peak (unbound compound) with increasing P38 (P38 MAP kinase [1]; 2-compound mixture 5 uM each, P38 0, 2.5, 5 and 10 uM, Diol column) | level of the compound's characteristic peaks in the mass spectrum of the protein fraction (P38 MAP kinase [1]; 10 compound mixture 0.5 uM each, GFF II column) | reduction of the compound's UV peak (unbound compound) with increasing P38 (P38 MAP kinase [1]; 10 compound mixture 0.5 uM each, P38 0, 3.5 and 5 uM, GFF II column) | level of the compound's characteristic peak in the mass spectrum of the protein fraction (P38 MAP kinase [1]; 100 compound mixture 20 uM each, P38 2 uM, GFF II column) | reduction of the compound's UV peak (unbound compound) with increasing tubulin (tubulin) | affinity for the P38 MAP kinase protein target (P38 MAP kinase [2])
1 | C=C[C@H]1CN2CC[C@H]1C[C@H]2[C@H](O)c1ccnc2ccc(OC)cc12.Cl [quinine, quinine monohydrochloride] | not quinine |  |  |  |  |  |  | 
2 | Fc1ccc(-c2nc3n(c2-c2ccncc2)CCS3)cc1 [SKB86002] | identified as 86002 | corresponded to the 86002 standard | concentration dependant reduction | at a level far higher than other peaks | concentration dependent reduction | at a level far higher than other peaks | negligible reduction | micromolar affinity
